Values quoted from earlier work, collected in patent US20020143065A1, “Developing a delivery system for multi-pharmaceutical active materials at various release rates” (priority 2000, published 2002).

Key:
[1] = gynecological patients, intravenous patient-controlled analgesia
[2] = compared with tramadol racemate

## COc1cccc(C2(O)CCCCC2CN(C)C)c1 (racemic) [racemate, tramadol]
[1]
  analgesic efficacy: more efficacy than (−) tramadol enantiomer
  side effects (nausea and vomiting): no more side effects than (+) tramadol enantiomer

## COc1cccc([C@@]2(O)CCCC[C@@H]2CN(C)C)c1 (single isomer, unassigned) [(+) enantiomer, (+) tramadol]
[1]
  analgesic efficacy: more potent in producing analgesia
  side effects (nausea and vomiting): produced more nausea and vomiting
[2]
  opiate-like analgesic effect: considerably enhanced compared with that of tramadol
